Test results from patent publication US20260297106A1, “SPIROCYCLIC SUBSTITUTED OXOISOINDOLINYL PIPERIDINE-2,6-DIONE COMPOUND” (Bristol-Myers Squibb Company, priority 2023, published 2026).

Key:
Format in all cases: cell-based
[1] = biological target: IKZF3 Aiolos (Homo sapiens, UniProt Q96SW2+Q9UKT9); assay: Jurkat Cellular Degradation Assay (IKZF3 Aiolos); parameters: endogenous in cells; details: Jurkat cells, 72 h; for Dmax: human, 100% = no detectable protein remaining, read-out: IKZF3 Aiolos max % deg. observed
Description: (§1) Jurkat cells were plated at 80,000 cells/well in 40 μL RPMI+10% FBS in a 384-well cell culture plate prior to using acoustic dispensing technology for adding a compound of interest. Cell cultures were incubated for 72 h at 37° C. and 5% CO2. In order to facilitate analysis, cell cultures were spun down at 200 rpm for 5 min and the supernatant was discarded. After shaking the plate to dislodge the cell pellet, cells were resuspended in 50 μL of Fixation Buffer (eBioscience FoxP3 buffer set 00-5523-00) for 60 min at room temperature. After centrifuging and discarding the supernatant, cells were permeabilized with 50 μL of Permeabilization buffer (eBioscience FoxP3 buffer set 00-5523-00) for 10 min at room temperature. Following permeabilization, cells were spun down and the supernatant was replaced with 20 μL fluorescently labelled antibodies against Helios, Ikaros and Aiolos or corresponding Isotype controls in 1× Permeabilization buffer (Ikaros-Alexa488 [Biolegend, Cat #368408, 1:50], Helios-PE [CST, Cat #29360, 1:50], Aiolos-Alexa647 [Biolegend, Cat #371106 Biolegend, 1:25]) and staining reactions were incubated for 1 h at room temperature while protected from light. Subsequently, 30 μL of 1× Permeabilization buffer was added prior to centrifuging the cells and discarding the supernatant. Stained cells were resuspended in 25 μL of flow cytometry staining buffer [PBS+0.2% bovine serum albumin (BSA)] and analyzed using an Intellicyt Ique Plus flow cytometer.
(§2) Table A-1 lists the maximum observed degradation of the IKZF1 protein, IKZF2 protein, and IKZF3 protein as measured in the Jurkat Cellular Degradation assay. The results in Table A-I were rounded to two digits. In the Jurkat Cellular Degradation assay, a value of 100% indicated no detectable protein remaining or complete degradation of the protein; and a value of 0% indicated no detectable degradation of the protein by the test compound.

[2] = biological target: IKZF1 Ikaros (Homo sapiens, UniProt Q13422+Q96SW2); assay: Jurkat Cellular Degradation Assay (IKZF1 Ikaros); parameters: endogenous in cells; details: Jurkat cells, 72 h; for Dmax: human, 100% = no detectable protein remaining, read-out: IKZF1 Ikaros max % deg. observed
Description: as §1, §2

[3] = biological target: IKZF2 Helios (Homo sapiens, UniProt Q96SW2+Q9UKS7); assay: Human Regulatory T Cell Reprogramming Assay (IKZF2 Helios); parameters: T cells were isolated from fresh healthy leukopaks; endogenous in cells; host or cells: FACS-sorted primary human CD4+ CD127low CD25+ Treg cells from healthy leukopaks; details: CD4+ CD127low CD25+ Treg cells, 12-13 days; for DC50: concentration reducing protein level by 50% vs DMSO; for Dmax: Regulatory T cell, human, read-out: Maximum Observed Degradation IKZF2 Helios
Description: Human CD4^+ T cells were isolated from fresh healthy leukopaks (Stemcell Technologies) using the RosetteSep Human CD4^+ T cell enrichment cocktail (Stemcell Technologies) and Ficoll density gradient centrifugation. Leukopaks were diluted with an equal volume of phosphate-buffered saline (PBS [Gibco]) supplemented with 2% fetal bovine serum (FBS, VWR Lifescience) and incubated with RosetteSep Human CD4^+ T cell enrichment cocktail for 20 minutes before layering on Ficoll-Paque Plus solution (GE Health Care). The cell-rich interface layer was harvested and washed twice with PBS supplemented with 2% FBS. Regulatory T cells were then isolated manually using the EasySep Human CD4 CD1271WCD25^+ Regulatory T cell isolation kit (Stemcell Technologies) according to the manufacturer's instructions. Cells were rested overnight in Roswell Park Memorial Institute (RPMI) 1640 media (Gibco) supplemented with 10% FBS, Pen/Strep (Gibco), MEM-NEAA (Gibco), and sodium pyruvate (Gibco) in a humidified incubator (37° C., 5% CO2). Cells were then stained for CD4 (clone: RPA-T4, Biolegend), CD25 (clone: 2A3, BD Biosciences), and CD127 (clone: hIL-7R-M21, BD Biosciences). CD4^+ CD127^lowCD25^+ cells were sorted on a BD FACS Aria Fusion sorter to a purity of 95% or greater. Sorted cells were immediately used or cryopreserved for downstream assays.
Fresh or cryopreserved FACS-sorted CD4^+ CD127^lowCD25^+ Treg cells were cultured at 25,000-50,000 cells/well of 96-well round bottom plates in RPMI 1640 media (Gibco) supplemented with 10% FBS, Pen/Strep (Gibco), MEM-NEAA (Gibco), and sodium pyruvate (Gibco). Cells were stimulated with Treg Xpander beads (Thermo Fisher) at cells-to-beads ratio of 1:4 in the presence of 500 U/mL recombinant human IL-2 (Proleukin). Compounds were added at titrated doses and cells were incubated at 37° C., 5% CO2 for 12-13 days. Recombinant human IL-2 and compound were replenished every 2-3 days during the entire culture duration. On day 12 or 13, cells were restimulated with phorbol 12-myristate 13-acetate (PMA) and ionomycin in the presence of the protein transport inhibitors brefeldin A and monensin (eBioscience Cell Stimulation Cocktail plus protein transport inhibitors, 500×, Catalog number 00-4975-93) before proceeding with flow cytometry staining and analysis.
For flow cytometry staining, cells were washed twice with flow cytometry staining buffer (Thermo Fisher) and incubated in Human Tru-stain Fc block (Biolegend) for 10 minutes before adding eFluor780 viability dye (Thermo Fisher) and surface marker antibody cocktail for 30 minutes at 4° C. Cells were then fixed and permeabilized by incubation with FoxP3 transcription factor staining buffer (Thermo Fisher) for 30 minutes at 4° C. as per the kit manufacturer's instructions. Cells were washed twice with the Perm/Wash buffer supplied in the kit as per the manufacturer's instructions and incubated overnight at 4° C. with an intracellular antibody cocktail comprised of antibodies specific for the transcription factors shown in Table C. Cells were washed twice with Perm/Wash buffer and resuspended in flow cytometry staining buffer (Thermo Fisher) prior to acquisition. Sample acquisition and analysis was performed using a BD LSRFortessa (BD Biosciences) flow cytometer. Single stain controls for each fluorochrome were prepared using UltraComp eBead Compensation Beads (Thermo Fisher). Data were analyzed using FlowJo version 10 and GraphPad Prism Software.
as §2, with “C-1” for “A-1”, “the” for “the IKZF1 protein,”, “protein” for “protein,”, “IKZF4” for “IKZF3”, “Human Regulatory T Cell Reprogramming” for “Jurkat Cellular Degradation”, “C-1” for “A-I”

[4] = concentration reducing protein level by 50% vs DMSO

Chain of IKZF2 Helios (Q9UKS7 whole entry): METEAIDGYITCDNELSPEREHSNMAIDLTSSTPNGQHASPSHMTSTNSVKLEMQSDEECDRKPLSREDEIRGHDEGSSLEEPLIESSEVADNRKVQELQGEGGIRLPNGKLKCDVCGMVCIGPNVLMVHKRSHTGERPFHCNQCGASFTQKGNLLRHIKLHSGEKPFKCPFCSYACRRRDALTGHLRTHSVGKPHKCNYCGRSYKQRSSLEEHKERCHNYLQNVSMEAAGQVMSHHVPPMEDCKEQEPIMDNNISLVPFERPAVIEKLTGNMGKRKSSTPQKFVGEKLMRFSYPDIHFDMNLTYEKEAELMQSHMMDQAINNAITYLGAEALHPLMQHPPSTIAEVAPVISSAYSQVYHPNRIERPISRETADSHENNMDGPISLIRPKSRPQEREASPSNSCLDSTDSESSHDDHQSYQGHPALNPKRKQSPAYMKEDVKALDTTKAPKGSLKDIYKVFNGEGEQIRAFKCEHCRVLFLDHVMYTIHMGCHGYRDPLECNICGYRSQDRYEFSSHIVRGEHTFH
Chain of IKZF2 Helios (Q96SW2 whole entry): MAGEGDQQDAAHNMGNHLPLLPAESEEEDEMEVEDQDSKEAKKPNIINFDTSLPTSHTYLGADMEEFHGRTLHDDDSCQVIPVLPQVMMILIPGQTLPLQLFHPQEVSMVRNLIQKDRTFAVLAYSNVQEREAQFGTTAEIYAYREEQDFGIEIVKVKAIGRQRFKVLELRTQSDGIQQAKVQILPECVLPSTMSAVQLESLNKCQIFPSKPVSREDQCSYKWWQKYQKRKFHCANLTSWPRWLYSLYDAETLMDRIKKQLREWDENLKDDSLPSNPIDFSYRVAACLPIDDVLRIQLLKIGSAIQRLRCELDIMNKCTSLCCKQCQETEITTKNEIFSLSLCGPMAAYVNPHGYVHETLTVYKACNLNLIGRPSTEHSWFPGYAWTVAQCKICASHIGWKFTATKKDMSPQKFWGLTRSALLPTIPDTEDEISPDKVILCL
Chain of IKZF2 Helios (Q16531 whole entry partner): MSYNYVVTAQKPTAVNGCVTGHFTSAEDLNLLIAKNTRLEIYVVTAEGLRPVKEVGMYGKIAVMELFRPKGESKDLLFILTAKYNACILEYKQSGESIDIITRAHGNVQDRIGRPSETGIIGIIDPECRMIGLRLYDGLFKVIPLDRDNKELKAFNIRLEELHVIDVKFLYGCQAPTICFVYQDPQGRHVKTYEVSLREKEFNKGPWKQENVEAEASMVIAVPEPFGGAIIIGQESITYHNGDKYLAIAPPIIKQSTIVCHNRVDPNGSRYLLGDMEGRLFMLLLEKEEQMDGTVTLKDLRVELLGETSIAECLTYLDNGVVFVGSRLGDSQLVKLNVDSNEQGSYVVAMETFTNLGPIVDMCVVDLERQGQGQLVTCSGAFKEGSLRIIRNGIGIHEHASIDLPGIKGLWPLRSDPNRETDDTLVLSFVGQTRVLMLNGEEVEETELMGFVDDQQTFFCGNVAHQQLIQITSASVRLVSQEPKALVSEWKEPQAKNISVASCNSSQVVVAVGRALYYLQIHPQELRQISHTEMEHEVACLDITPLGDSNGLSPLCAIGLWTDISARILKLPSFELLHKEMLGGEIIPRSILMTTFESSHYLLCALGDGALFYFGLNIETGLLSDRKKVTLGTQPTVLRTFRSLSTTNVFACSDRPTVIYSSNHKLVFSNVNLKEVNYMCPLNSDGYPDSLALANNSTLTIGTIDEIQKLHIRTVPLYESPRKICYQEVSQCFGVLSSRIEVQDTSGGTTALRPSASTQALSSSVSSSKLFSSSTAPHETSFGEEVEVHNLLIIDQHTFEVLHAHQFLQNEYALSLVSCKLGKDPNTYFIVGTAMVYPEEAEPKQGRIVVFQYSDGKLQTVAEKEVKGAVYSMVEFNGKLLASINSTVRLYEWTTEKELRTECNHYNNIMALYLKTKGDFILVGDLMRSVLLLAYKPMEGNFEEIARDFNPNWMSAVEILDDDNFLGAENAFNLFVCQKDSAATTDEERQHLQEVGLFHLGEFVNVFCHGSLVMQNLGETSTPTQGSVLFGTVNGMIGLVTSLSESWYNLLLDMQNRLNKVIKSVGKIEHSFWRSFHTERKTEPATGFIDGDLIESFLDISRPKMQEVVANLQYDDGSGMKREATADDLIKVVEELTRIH
Chain of IKZF3 Aiolos (Q9UKT9 whole entry): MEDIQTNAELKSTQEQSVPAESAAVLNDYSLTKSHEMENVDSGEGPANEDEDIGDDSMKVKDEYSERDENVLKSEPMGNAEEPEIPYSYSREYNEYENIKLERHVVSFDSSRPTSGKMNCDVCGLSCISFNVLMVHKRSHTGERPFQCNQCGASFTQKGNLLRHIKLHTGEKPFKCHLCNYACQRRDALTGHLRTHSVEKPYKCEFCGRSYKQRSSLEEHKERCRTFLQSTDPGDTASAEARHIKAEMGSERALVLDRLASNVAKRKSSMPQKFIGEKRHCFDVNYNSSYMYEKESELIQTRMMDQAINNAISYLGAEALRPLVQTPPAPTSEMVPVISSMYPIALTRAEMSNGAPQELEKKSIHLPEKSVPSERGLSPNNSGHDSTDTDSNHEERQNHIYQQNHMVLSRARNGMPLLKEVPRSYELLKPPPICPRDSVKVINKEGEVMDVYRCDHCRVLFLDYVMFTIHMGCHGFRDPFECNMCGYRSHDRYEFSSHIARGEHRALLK
Chain of IKZF3 Aiolos (Q96SW2 whole entry): as the sequence (Q96SW2 whole entry) above
Chain of IKZF3 Aiolos (Q16531 whole entry partner): as the sequence (Q16531 whole entry partner) above
Chain of IKZF1 Ikaros (Q13422 whole entry): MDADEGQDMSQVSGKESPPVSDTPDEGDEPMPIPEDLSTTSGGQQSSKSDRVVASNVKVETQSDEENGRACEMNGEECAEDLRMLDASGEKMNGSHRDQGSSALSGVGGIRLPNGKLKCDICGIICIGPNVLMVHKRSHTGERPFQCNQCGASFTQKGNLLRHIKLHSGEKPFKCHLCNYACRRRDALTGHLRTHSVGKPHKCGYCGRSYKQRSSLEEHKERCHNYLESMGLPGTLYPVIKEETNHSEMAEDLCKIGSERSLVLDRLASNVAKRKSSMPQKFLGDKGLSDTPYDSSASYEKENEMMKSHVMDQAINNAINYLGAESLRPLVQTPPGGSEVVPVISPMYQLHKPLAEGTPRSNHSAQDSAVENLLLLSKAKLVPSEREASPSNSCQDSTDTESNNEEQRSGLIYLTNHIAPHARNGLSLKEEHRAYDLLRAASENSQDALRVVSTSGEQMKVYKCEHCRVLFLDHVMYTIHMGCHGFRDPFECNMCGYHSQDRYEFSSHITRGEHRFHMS
Chain of IKZF1 Ikaros (Q96SW2 whole entry): as the sequence (Q96SW2 whole entry) above
Chain of IKZF1 Ikaros (Q16531 whole entry partner): as the sequence (Q16531 whole entry partner) above

Dmax [1] [%] | Dmax [2] [%] | DC50 [3] [nM] | Dmax [3] [%] | DC50 [1, 4] [nM] | DC50 [2, 4] [nM] | SMILES
14 | 13 | 2.2 | 92 |  |  | O=C1CCC(N2Cc3c(ccc(-c4cc(CN5CC(c6ccccc6)C5)ccn4)c3F)C2=O)C(=O)N1 (centres unmarked) [Comparative Compound A, 3-(4-fluoro-1-oxo-5-(4-((3-phenylazetidin-1-yl)methyl)pyridin-2-yl)isoindolin-2-yl) piperidine-2,6-dione]
28 | 48 | 25 | 90 |  |  | Nc1nc(-c2ccc3c(c2)CN(C2CCC(=O)NC2=O)C3=O)ccc1CN1CC2(CCC2)C1 (centres unmarked) [Comparative Compound B, 3-(5-(5-((2-azaspiro[3.3]heptan-2-yl)methyl)-6-aminopyridin-2-yl)-1-oxoisoindolin-2-yl) piperidine-2,6-dione]
33 | 53 | 38 | 85 | > 10000 | 6440 | Nc1nc(-c2ccc3c(c2F)CN(C2CCC(=O)NC2=O)C3=O)ccc1CN1CC2(CCCOC2)C1 (centres unmarked) [Example 1, 3-(5-(5-((6-oxa-2-azaspiro[3.5]nonan-2-yl)methyl)-6-aminopyridin-2-yl)-4-fluoro-1-oxoisoindolin-2-yl) piperidine-2,6-dione]
